Reference: US9096539B2, “Substituted 4,5-dihydro-2H-benzo[e]indazole-9-carboxylates for the treatment of diabetes and related disorders” (Council of Scientific & Industrial Research, priority 2012, dated 2015)
Where two headings read alike, the source gives them in different places.

How the values were obtained:
[1] = test system: low dosed STZ induced diabetic rats; assay: Antihyperglycaemic activity in low dosed streptozotocin induced diabetic rats (STZ); type: in vivo, rat; conditions: for Blood Glucose Profile 0 min (Pre treatment): 0 min pre treatment (fasting baseline); for Blood Glucose Profile 0 min (Pre treatment) / Blood Glucose Profile 30 min (Post treatment) / Blood Glucose Profile 60 min (Post treatment) / Blood Glucose Profile 90 min (Post treatment) / Blood Glucose Profile 120 min (Post treatment) / Blood Glucose Profile 180 min (Post treatment) / Blood Glucose Profile 240 min (Post treatment) / Blood Glucose Profile 300 min (Post treatment) / Blood Glucose Profile 1440 min (Post treatment) / % Antihyperglycaemic activity STZ 0-5 h AUC / % Antihyperglycaemic activity STZ 0-24 h AUC: low dosed STZ diabetic rats, compounds 100 mg/kg, Januvia 50 mg/kg; for % Antihyperglycaemic activity STZ 0-5 h AUC / % Antihyperglycaemic activity STZ 0-24 h AUC: oral; for lowering in the hyperglycaemia of the diabetic rats: low dosed streptozotocin induced diabetic rats, 100 mg/kg, result in words
Description: (§1) The test compounds and standard antidiabetic drug Januvia were prepared in 1.0% freshly prepared Gum acacia.
Assessment of Test Compounds for Antihyperglycaemic Activity in Low Dosed Streptozotocin Induced Diabetic Rats—
Induction of Diabetes in Rats:
Overnight starved male albino rats of Sprague Dawley strain were used and Diabetes was induced in the animals by single intraperitoneal injection of Streptozotocin at 60 mg/kg body weight dose prepared in 0.1M citrate buffer (pH 4.5). Fasting blood glucose level was measured by using a Glucometer (ACCU-CHEK II; Roche Diagnostics, USA) after 48 hours and animals showing blood glucose level above 300 mg/di were considered as diabetic.
The diabetic animals were divided into four groups (Group 1 to 4) each consisting 6 rats. Group 1 received 0.4 ml vehicle (1% gum acacia). Group 2 received the test compound 5 at an oral dose of 100 mg/kg/body weight. Group 3 was given compound 6 at an oral dose of 100 mg/kg/body weight. The standard antidiabetic drug Januvia was given to the animals of Group 4 at an oral dose of 50 mg/kg body weight. […] Food but not water was withheld from the cages during the course of experimentation. Percent hyperglycemic activity was determined by comparing the AUC (area under curve) of experimental groups with that of the vehicle treated control group.
(§2) Quantitative glucose tolerance of each animal was calculated by the area under the curve (AUC) method using Prism Software. The area under the curve of the control group and the experimental group was compared to determine the percent antihyperglycaemic activity. Statistical comparisons were performed by one-way analysis of variance (ANOVA), followed by Dunnett's multiple range test (DMRT). The results were considered statistically significant if the ‘p’ values were 0.05 or less. Results were expressed as mean±SEM.

[2] = test system: sucrose loaded normoglycaemic rats; assay: Antihyperglycaemic activity on sucrose loaded normoglycaemic rats (SLM); type: in vivo, rat; conditions: for Blood Glucose Profile 0 min: 0 min (fasting baseline); for Blood Glucose Profile 0 min / Blood Glucose Profile 30 min / Blood Glucose Profile 60 min / Blood Glucose Profile 90 min / Blood Glucose Profile 120 min / % Antihyperglycaemic activity SLM: sucrose loaded normoglycaemic rats, compounds 100 mg/kg, Januvia 50 mg/kg; for Blood Glucose Profile 0 min / Blood Glucose Profile 30 min / Blood Glucose Profile 60 min / Blood Glucose Profile 90 min / Blood Glucose Profile 120 min: mean ± S.E.; for Blood Glucose Profile 30 min: 30 min post sucrose; for Blood Glucose Profile 60 min: 60 min post sucrose; for Blood Glucose Profile 90 min: 90 min post sucrose; for Blood Glucose Profile 120 min: 120 min post sucrose; for % Antihyperglycaemic activity SLM: AUC vs control, oral; for improvement in glucose tolerance: sucrose loaded normoglycemic rats, 100 mg/kg b.w., result in words
Description: as §1
Assessment of Test Compounds for Antihyperglycaemic Activity on Sucrose Loaded Normoglycaemic Rats—
In order to search towards the antidiabetic activity, synthetic compounds were preliminary evaluated for their effect on glucose tolerance in normal rats. It is an indirect effect of measuring antihyperglycaemic activity. Male albino rats of Wistar strain of body weight 160±20 g were selected for this study. The blood glucose of each animal was checked by glucometer using glucostrips (Accu-check) after 16 hours starvation. Animals showing blood glucose between 60 to 80 mg/dl (3.33 to 4.44 mM) were divided into groups of five to six animals in each. Rats of experimental group were administered suspension of the desired test compound orally (made in 1.0% gum acacia). The standard dose decided for Synthetic compounds is 100 mg/kg body weight. Animals of control group were given an equal amount of 1.0% gum acacia. A sucrose load (10.0 g/kg) was given to each animal orally exactly after 30 min post administration of the test sample/vehicle. Blood glucose profile of each rat was again determined at 30, 60, 90 and 120 min post administration of sucrose by glucometer. Food but not water was withheld from the cages during the course of experimentation. Quantitative glucose tolerance of each animal was calculated by area under curve (AUC) method using Prism Software. Comparing the AUC of experimental and control groups determined the percentage antihyperglycaemic activity. Statistical comparison was made by Dunnett's test.
as §2

[3] = target: T1, human recombinant PTP1B enzyme (Homo sapiens, UniProt P18031); assay: Protein tyrosine phosphatase-1B assay (colorimetric kit BML-AK 822); type: biochemical; conditions: for inhibition at 0.3 µM: read-out: % Inhibition at different Inhibitor concentration 0.3 μM; for inhibition at 1 µM: read-out: % Inhibition at different Inhibitor concentration 1 μM; for inhibition at 3 µM: read-out: % Inhibition at different Inhibitor concentration 3 μM; for inhibition at 5 µM: read-out: % Inhibition at different Inhibitor concentration 5 μM; for IC50: from % inhibition at 5 concentrations 0.3-10 μM
T1 construct: purchased Enzo Life Sciences, USA BML-AK 822
T1 sequence (P18031 1-322 limits assumed): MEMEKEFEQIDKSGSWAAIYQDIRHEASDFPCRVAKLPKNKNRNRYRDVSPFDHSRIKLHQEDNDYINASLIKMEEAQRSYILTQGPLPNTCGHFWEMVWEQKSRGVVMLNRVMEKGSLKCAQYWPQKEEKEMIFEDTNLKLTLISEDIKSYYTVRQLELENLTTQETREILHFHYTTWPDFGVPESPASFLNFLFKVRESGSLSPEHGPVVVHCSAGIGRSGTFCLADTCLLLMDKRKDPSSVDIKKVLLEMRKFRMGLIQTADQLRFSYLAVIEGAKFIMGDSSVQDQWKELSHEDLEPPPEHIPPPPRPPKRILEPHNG
Description: Assay was done according to the Kit manufacturers protocol, in brief the reaction was carried out in 96 well flat bottomed microtiter plate by the addition of assay buffer, solution of test compounds and diluted PTP1B enzyme. Enzyme reaction was initiated by addition of 50 μl of warmed 2× substrate then incubated the plate at 30° C. for 30 min. After incubation for 30 min. Reaction was terminated by addition of 25 μl of biomol red reagent and mixed thoroughly by repeated pipetting. […] Volumes and dilution of other component were accordingly as instructed in the manual provided in the kit. PTP1B phosphatase acting on the phosphopeptide substrate and release phosphate. The detection of free phosphate released is based on classic Malachite green assay. After adding biomol red to reaction wells after 30 minutes of incubation as described earlier the plate was incubated for another 20 min to develop the colour. Absorbance was recorded at 620 nm. on a microplate reader.

[4] = Table 5, evaluated at 10 μM concentration, read-out: % Inhibition (PTP-1B)
[5] = Table 6 dose response, 10 μM, read-out: % Inhibition at different Inhibitor concentration 10 μM

Row | melting point | SMILES | Blood Glucose Profile 0 min (Pre treatment) [1] | Blood Glucose Profile 30 min (Post treatment) [1] | Blood Glucose Profile 60 min (Post treatment) [1] | Blood Glucose Profile 90 min (Post treatment) [1] | Blood Glucose Profile 120 min (Post treatment) [1] | Blood Glucose Profile 180 min (Post treatment) [1] | Blood Glucose Profile 240 min (Post treatment) [1] | Blood Glucose Profile 300 min (Post treatment) [1] | Blood Glucose Profile 1440 min (Post treatment) [1] | % Antihyperglycaemic activity STZ 0-5 h AUC [1] | % Antihyperglycaemic activity STZ 0-24 h AUC [1] | lowering in the hyperglycaemia of the diabetic rats [1] | Blood Glucose Profile 0 min [2] | Blood Glucose Profile 30 min [2] | Blood Glucose Profile 60 min [2] | Blood Glucose Profile 90 min [2] | Blood Glucose Profile 120 min [2] | % Antihyperglycaemic activity SLM [2] | improvement in glucose tolerance [2] | other results
1 | 178 to 180 °C | COC(=O)c1c(SC)cc(-c2ccc(C)cc2)c2c1-c1cn(-c3ccccc3)nc1CC2 [compound 5, methyl 8-(methylthio)-2-phenyl-6-p-tolyl-4,5-dihydro-2H-benzo[e]indazole-9-carboxylate] | 346.6 ± 6.19 mg/dL | 434.2 ± 12.4 mg/dL | 481.2 ± 11.8 mg/dL | 447.0 ± 8.16 mg/dL | 434.8 ± 11.7 mg/dL | 385.6 ± 5.8 mg/dL | 353.6 ± 16.4 mg/dL | 362.4 ± 17.6 mg/dL | 483.0 ± 3.95 mg/dL | 23.1% | 18.2% | significant lowering in the hyperglycaemia | 66.2 ± 3.05 mg/dL | 107.4 ± 7.76 mg/dL | 104.8 ± 5.12 mg/dL | 108.3 ± 3.59 mg/dL | 109.8 ± 7.86 mg/dL | 35.8% | significant improvement in glucose tolerance | inhibition at 10 µM [3, 4]: 83.8%; inhibition at 0.3 µM ([3]; Table 6 dose response): 3.89%; inhibition at 1 µM ([3]; Table 6 dose response): 13.2%; inhibition at 3 µM ([3]; Table 6 dose response): 24.1%; inhibition at 5 µM ([3]; Table 6 dose response): 36.7%; inhibition at 10 µM [3, 5]: 67.8%; IC50 [3]: 7.12 µM
2 | 182 to 184 °C | COC(=O)c1c(SC)cc(-c2cccc3ccccc23)c2c1-c1cn(-c3ccccc3)nc1CC2 [compound 6, methyl 8-(methylthio)-6-(naphthalen-1-yl)-2-phenyl-4,5-dihydro-2H-benzo[e]indazole-9-carboxylate] | 344.0 ± 3.91 mg/dL | 444.6 ± 16.6 mg/dL | 492.0 ± 13.6 mg/dL | 490.2 ± 11.2 mg/dL | 474.8 ± 15.0 mg/dL | 426.0 ± 16.0 mg/dL | 385.8 ± 15.6 mg/dL | 355 ± 14.3 mg/dL | 442.4 ± 9.64 mg/dL | 18.9% | 20.1% | significant lowering in the hyperglycaemia | 66.2 ± 2.63 mg/dL | 120.0 ± 7.30 mg/dL | 111.2 ± 7.30 mg/dL | 110.4 ± 4.73 mg/dL | 107.4 ± 4.95 mg/dL | 23.5% | significant improvement in glucose tolerance | inhibition at 10 µM [3, 4]: 76.9%; inhibition at 0.3 µM ([3]; Table 6 dose response): 0.5%; inhibition at 1 µM ([3]; Table 6 dose response): 11.2%; inhibition at 3 µM ([3]; Table 6 dose response): 16.2%; inhibition at 5 µM ([3]; Table 6 dose response): 28.8%; inhibition at 10 µM [3, 5]: 62.3%; IC50 [3]: 8.12 µM
